Earlier results as cited in patent US20060110477A1, “Composition and method for supporting and promoting healthy sexual function and prevention and treatment of sexual dysfunction” (priority 2004, published 2006).

Target: rat cGMP-specific PDE5 (Rattus norvegicus, UniProt O54735)

Compound: COc1cc(O)c(CC=C(C)C)c2oc(-c3ccc(O)cc3)c(O)c(=O)c12 [sophoflavescenol]
- relative potency against cGMP PDE5 (among the flavonols in the ethyl acetate fraction): most potent
- IC50 ratio PDE4/PDE5 (selectivity between PDE isoforms): 196.2
